For orientation: melting point means the temperature, or range, at which the solid turns liquid. The compound `CCN(CC)S(=O)(=O)c1ccc(N2CCN(C)CC2)c(N)c1` registered a melting point of 148 to 152 °C.
Next, `NC1CCN(c2ccccc2)C1=O` (stereo not given): 66 to 68 °C.
The figure for `CCOc1cc(/C=N/O)ccc1O` is 104 to 106 °C.
In turn, `COc1ccc(C(=O)O)cc1N1CCNC1=O` came in with a melting point of 246 to 248 °C.
`CC(=O)N1CCCc2cc(C(=O)O)ccc21` gave a melting point of 184 to 186 °C.
As to `Fc1ccc2ccc(Cl)nc2c1`, the melting point was in the range of 97 to 99 °C.
`c1ccc2c(c1)CN1CCCC1CN2` (stereo not given) returned a melting point of 107 to 109 °C.
`Cc1ccc(-n2nc(C)c(C(=O)O)c2Cl)cc1Cl`: the melting point lay within 241 to 243 °C.
Compound `CC(=O)NCc1ccc(C(=O)N2CCCC2C(=O)O)cc1` (stereo not given) displayed a melting point of 196 to 198 °C.
The figure for `Cc1cc(C(=O)CCl)c(C)n1-c1ccccn1` is 76 to 78 °C.
`COc1cc(OC)cc(-c2nnc(S)n2N)c1` showed a melting point of 178 to 180 °C.
Next, `COc1cc(Cl)c(C)cc1N`: 102 to 103 °C.
For `CCS(=O)(=O)c1ccc(CCC(=O)O)cc1`, the melting point is 119 to 121 °C.
Next, `c1nc(N2CCCC2)c2nc[nH]c2n1`: 302 to 304 °C; `c1ccc(CN2CCN(Cc3ccccc3)CC2)cc1`: 89 to 91 °C.
Next, `CS(=O)(=O)NC1CCNCC1`: 143 to 145 °C.
Next, `C=CCNc1nc(-c2ccccc2)cs1`: 74 to 76 °C; `O=C(O)C1CC(=O)N(c2ccc3c(c2)OCO3)C1` (stereo not given): 172 to 174 °C.
With `CCN(CC)S(=O)(=O)c1cccc(C(=O)NCC(=O)O)c1`, the melting point is 69 to 71 °C.
Next, `COC(=O)c1cc(Br)c(N)s1`: 88 to 90 °C.
The figure for `Cc1c(N)cccc1N1CCCC1=O` is 170 to 172 °C.
Next, `C=CS(=O)(=O)c1cc(F)cc([N+](=O)[O-])c1`: 90 to 92 °C; `O=C(O)Cn1nc(-c2ccccc2)ccc1=O`: 237 to 239 °C.
Take `CC(C)(C)OC(=O)NCC1CCCC1N` (stereo not given): the melting point fell in the range of 43 to 45 °C.
Next, `Cn1cnnc1Sc1ccccc1N`: 137 to 139 °C; `CC(C)n1cnnc1-c1ccccc1N`: 97 to 99 °C.
The figure for `CCOC(=O)c1cc(C23CC4CC(CC(C4)C2)C3)[nH]n1` is 192 to 194 °C.
Next, `CC(C)n1ncc(C(=O)O)c1C1CC1`: 99 to 101 °C; `Clc1nc(-c2ccccc2)cs1`: 55 to 57 °C; `Cc1ccc(S(=O)(=O)CC(=O)CBr)cc1`: 133 to 135 °C.
`BrCc1cn(-c2ccccc2)nn1` returned a melting point of 111 to 113 °C.
The figure for `NNC(=O)c1cn(-c2ccccc2)nc1-c1ccccc1` is 161 to 163 °C; for `NC(=NO)c1ccc(Oc2ccc(F)cc2)nc1` it is 194 to 196 °C.
The compound `COC(=O)c1c(Cl)ncnc1Cl` had a melting point of 50 to 52 °C.
Next, `COc1cc(F)c([N+](=O)[O-])cc1F`: 78 to 80 °C; `COc1cc2c(c(OC)c1OC)CCNC(=O)C2`: 176 to 178 °C.
The compound `CCOC(=O)c1cnc2c(OC)ccc(OC)c2c1Cl` displayed a melting point of 87 to 89 °C.
Next, `Cc1sc(NC(=O)CCl)c(C#N)c1C`: 180 to 182 °C.
Turning to `O=C(O)/C=C/c1cc2ccccc2o1`, the melting point was in the range of 213 to 215 °C.
Regarding `N#CCC(=O)Nc1ccccc1Br`, the melting point is 136 to 138 °C.
Consider `COc1ccnc(N2CCC(C(=O)O)CC2)n1`, for which the melting point was 131 to 133 °C.
As for `O=C(O)C1CCN(S(=O)(=O)N2CCCCC2)CC1`, the melting point lay in the range of 131 to 133 °C.
Next, `CCOc1ccc(C(=O)N(C)C)cc1N`: 127 to 129 °C; `Cc1[nH]c2ccc(F)cc2c1C=O`: 215 to 217 °C; `CC(C)c1noc2nc(-c3cccnc3)cc(C(=O)O)c12`: 279 to 281 °C.
Next, `O=C(O)c1cccc(CN2CCCC2)c1`: 196 to 198 °C.
The figure for `N#Cc1ccc(N2CCC(N)CC2)nc1` is 70 to 72 °C; for `COc1ccc2c(c1)CCC(=O)N2` it is 141 to 143 °C.
In turn, `O=C(O)CCc1c(-c2ccc(F)cc2)[nH]c2ccc(F)cc12` returned a melting point of 131 to 135 °C.
As for `CC(=O)N1CCN(C(=O)CCl)CC1`, the melting point fell in the range of 89 to 91 °C.
Next, `Nc1nc(C2CC2)c(Cc2ccccc2Cl)s1`: 127 to 129 °C; `NC(=O)C1NCCc2ccccc21` (stereo not given): 180 to 182 °C; `COc1ccc2c(c1)c(C(=O)O)c(C)n2C1CCCCC1`: 137 to 139 °C.
The figure for `O=C(O)c1ccc(NC(=O)c2cc(Cl)cc(Cl)c2)cc1` is 305 to 307 °C.
`CC(=O)Nc1cccc(NC(=O)CCl)c1` yielded a melting point of 173 to 175 °C.
Next, `COc1ccc2[nH]cc(C3CCNCC3)c2c1`: 169 to 171 °C.
The figure for `O=C(CBr)c1cc2cc(Cl)ccc2o1` is 168 to 170 °C.
In turn, `O=C1CCCc2nc(-c3ccncc3)sc21` registered a melting point of 159 to 161 °C.
With `Cc1nc(S)nc(O)c1C`, the melting point is 276 to 278 °C.
Compound `CCCNCC(=O)Nc1ccc(Cl)cc1` returned a melting point of 44 to 46 °C.
Turning to `O=C(O)c1c(O)cc(=O)n2c1CCC2`, the melting point was 236 to 238 °C.
Turning to `O=C(Nc1ccccc1)c1ccc(Cl)nn1`, the melting point fell in the range of 213 to 215 °C.
Next, `N#CCNC(=O)CN1CCC(=O)CC1`: 124 to 126 °C; `CC(=O)c1ccc(-n2cnc3ccccc32)cc1`: 135 to 137 °C.
Regarding `O=C(O)C1CCCN(C(=O)c2c[nH]c3ccccc23)C1` (stereo not given), the melting point fell in the range of 231 to 233 °C.
Next, `O=C(Cc1nc2ccccc2[nH]1)C(F)(F)F`: 249 to 251 °C; `Cc1ccc(C#N)c(Br)c1`: 50 to 55 °C.
As to `O=C(O)Cn1c(-c2ccccc2)cc2ccccc21`, the melting point was 145 to 147 °C.
The figure for `COc1cccc2c1OCC(C(=O)O)C2` (stereo not given) is 174 to 176 °C; for `O=S(=O)(O)c1ccc2[nH]cnc2c1` it is 359 to 361 °C.
The figure for `CCc1ccc(/C=C/c2cc(C(=O)O)c3cc(Br)ccc3n2)cc1` is 286 to 288 °C; for `Nc1n[nH]c2c(Cl)cccc12` it is 189 to 191 °C.
The figure for `CCC1Cc2c(Br)cccc2C(=O)N1` (stereo not given) is 101 to 103 °C; for `Clc1cccc(Nc2nc3ccccc3s2)c1` it is 173 to 175 °C.
For `O=C(Cn1cnnn1)Nc1ccccc1C(=O)O`, the melting point lay within 194 to 196 °C.
Next, `CC(C)c1nn(C2CCS(=O)(=O)C2)cc1C(=O)O` (stereo not given): 202 to 204 °C.
The figure for `Nc1nnc(Cl)s1` is 179 to 181 °C; for `O=C(O)c1csc(-c2ccsc2)n1` it is 165 to 167 °C.
Next, `O=C(O)c1nn(-c2ccc(F)cc2)c2c1CCC2`: 202 to 204 °C.
On to `NC1=C(c2nc3ccccc3[nH]2)C(=O)CN1NC(=O)c1cccs1`, for which the melting point fell in the range of 270 to 272 °C.
The figure for `COC(=O)c1sc2c(c1N)CCC(C(C)(C)C)C2` (stereo not given) is 153 to 155 °C.
With `O=C(NC1CCc2ccccc21)c1ccnc(F)c1` (stereo not given), the melting point was 121 to 123 °C.
For `O=C(O)c1ccc(Oc2ccc(Oc3ccccc3)cc2)nc1`, the melting point was 152 to 154 °C.
Next, `Fc1ccccc1-c1nnc(CCl)o1`: 86 to 88 °C; `O=C1CC(c2ccc(Cl)cc2)CC(=O)N1`: 152 to 154 °C.

(Values after a melting point compilation (Tetko et al.).)
